The source of these data is patent US11945765B1, “4,4′-naphthalene-1,5-diylbis(diazene-2,1-diyl)bis(2-methylphenol) as an antioxidant compound” (KING FAISAL UNIVERSITY, priority 2023, dated 2024).

This test can be described thus: DPPH radical scavenging antioxidant test. To be noted: 517 nm; for Inhibition (radical scavenging inhibition): DPPH (0.75 mM), compound 3 μM in ethanol, 30 minutes in the dark. The protocol:
The antioxidant properties of the 4,4′-naphthalene-1,5-diylbis(diazene-2,1-diyl)bis(2-methylphenol) compound were studied by adding 0.2 mL DPPH (0.75 mM)) to 4,4′-naphthalene-1,5-diylbis(diazene-2,1-diyl)bis(2-methylphenol) (III) (3 μM) in ethanol. After 30 minutes of incubation in the dark, the absorbance was read against a blank at 517 nm. Ascorbic acid (vitamin C) was used as standard antioxidants (positive control). A blank sample was prepared by 0.2 ml of DPPH in 3 mL ethanol. A negative control sample was run using ethanol instead of the sample. The radical scavenging inhibition was calculated using the following equation: […]
In general terms: The DPPH test is a chemical assay of radical scavenging.

With `Cc1cc(/N=N\c2cccc3c(/N=N/c4ccc(O)c(C)c4)cccc23)ccc1O` [Product III, 4,4′-naphthalene-1,5-diylbis(diazene-2,1-diyl)bis(2-methylphenol)], the “Inhibition (radical scavenging inhibition)” value is on record as 52%. Also, where the note is “DPPH in vitro test, vitamin C as positive control”, the “antioxidant potential compared to vitamin C (in words)” value is “high potential as an antioxidant”.

Regarding `O=C1O[C@H]([C@@H](O)CO)C(O)=C1O` [vit c, Ascorbic acid, reference compound], the “Inhibition (radical scavenging inhibition)” value is 74%.
